Drawing on PubChem BioAssay (NCI), this text covers TGI and GI50 for twelve compounds.

SMILES strings stand for the structures.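 A five-concentration, 48-hour dose response in 96-well plates underlies each endpoint, interpolated linearly between surrounding concentrations. At the GI50, growth is halved. TGI marks complete inhibition of growth.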

Test systems include CAKI-1 renal; IGROV1 ovarian; KM12 colon; LOX IMVI melanoma; MDA-MB-231 breast; NCI/ADR-RES ovarian; OVCAR-4 ovarian; SK-MEL-5 melanoma; T-47D breast; TK-10 renal.
Holding throughout (assay): inhibition of tumour cell growth, NCI panel, 48 h

Turning to `NC12CC3CC4C1CC1CC2C(C3)C4(N)C1`, the TGI in the assay with CAKI-1 renal, with IGROV1 ovarian, in the assay with KM12 colon, in the assay on LOX IMVI melanoma, with MDA-MB-231 breast and in the assay on NCI/ADR-RES ovarian was greater than 100 µM in each case. Also, the TGI in the assay with OVCAR-4 ovarian, in the assay on SK-MEL-5 melanoma, in the assay with T-47D breast and in the assay on TK-10 renal was greater than 100 µM in each case.
Turning to `CCOC(=O)C1(C(=O)OCC)CC(=O)[C@@]2(C1)OCC[C@H]1OC(=O)C[C@H]12`, the TGI in the assay on CAKI-1 renal, in the assay with IGROV1 ovarian, with KM12 colon, with LOX IMVI melanoma, in the assay on MDA-MB-231 breast and in the assay on NCI/ADR-RES ovarian was greater than 100 µM throughout. Besides, the TGI in the assay on OVCAR-4 ovarian, in the assay on SK-MEL-5 melanoma, in the assay on T-47D breast and in the assay with TK-10 renal was greater than 100 µM in each case.
Take `CC1=C(C(=O)Nc2ccccc2)C(c2ccc(C)o2)C(C#N)=C(SCc2ccccc2)N1` (stereo not given): the TGI in the assay on CAKI-1 renal, with IGROV1 ovarian, in the assay on KM12 colon, in the assay on LOX IMVI melanoma, in the assay with MDA-MB-231 breast and in the assay with NCI/ADR-RES ovarian was greater than 100 µM throughout. Further, the TGI with OVCAR-4 ovarian, with SK-MEL-5 melanoma, with T-47D breast and in the assay with TK-10 renal was greater than 100 µM in each case.
With `COc1cc2c3c(n(Cc4ccccc4)c(=O)c2cc1OC)-c1ccccc1C3=O`, the TGI in the assay on CAKI-1 renal, in the assay with IGROV1 ovarian, in the assay on KM12 colon, in the assay with LOX IMVI melanoma, in the assay with MDA-MB-231 breast and in the assay on NCI/ADR-RES ovarian was greater than 100 µM throughout. The TGI in the assay on OVCAR-4 ovarian, in the assay on SK-MEL-5 melanoma, in the assay on T-47D breast and in the assay with TK-10 renal was greater than 100 µM throughout.
With `C=Cc1cc2c(cc1O)CC[C@@H]1[C@@H]2CC[C@]2(C)[C@@H](O)CC[C@@H]12`, the TGI came to 20.8 µM in the assay on CAKI-1 renal; 19.3 µM in the assay with IGROV1 ovarian; 14.9 µM in the assay on KM12 colon; 25.1 µM with LOX IMVI melanoma; 18.7 µM in the assay with MDA-MB-231 breast; 5.3 µM in the assay on NCI/ADR-RES ovarian. Also, the TGI in the assay on OVCAR-4 ovarian stood at 26.9 µM; with SK-MEL-5 melanoma, 15.7 µM; in the assay on T-47D breast, 36.2 µM; with TK-10 renal, 38.3 µM.
Consider `Oc1ccc2ccccc2c1N=Nc1ccccn1`, for which the GI50 in the assay on CAKI-1 renal was 0.138 µM; in the assay with IGROV1 ovarian, 0.349 µM; in the assay on KM12 colon, 0.919 µM; with LOX IMVI melanoma it was 0.356 µM; with MDA-MB-231 breast, 0.468 µM; in the assay with NCI/ADR-RES ovarian, 0.575 µM. Besides, the GI50 is 0.408 µM in the assay with OVCAR-4 ovarian, 2.75 µM with SK-MEL-5 melanoma, 0.681 µM with T-47D breast and 1.53 µM in the assay on TK-10 renal. Moreover, the TGI was 0.906 µM with CAKI-1 renal; 8.14 µM with IGROV1 ovarian; greater than 100 µM in the assay on KM12 colon; 12.4 µM in the assay on LOX IMVI melanoma; greater than 100 µM with MDA-MB-231 breast; 4.64 µM in the assay on NCI/ADR-RES ovarian. The TGI with OVCAR-4 ovarian is 3.87 µM; in the assay on SK-MEL-5 melanoma it was 15.6 µM; with T-47D breast it was greater than 28.4 µM; with TK-10 renal, greater than 86.2 µM.
As for `O=S(=O)(O)c1ccc2c(N=Nc3ccccc3Cl)c(O)ccc2c1`, the TGI with CAKI-1 renal, in the assay with IGROV1 ovarian, in the assay with KM12 colon, in the assay on LOX IMVI melanoma, in the assay on MDA-MB-231 breast and with NCI/ADR-RES ovarian was greater than 100 µM throughout. Further, the TGI with OVCAR-4 ovarian, in the assay on SK-MEL-5 melanoma, in the assay on T-47D breast and with TK-10 renal was greater than 100 µM in each case.
Turning to `COc1cc(C(=O)Nc2c3ccccc3nc3ccccc23)cc(OC)c1OC`, the TGI with CAKI-1 renal was greater than 67 µM; with IGROV1 ovarian it was greater than 100 µM; with KM12 colon, greater than 100 µM; in the assay on LOX IMVI melanoma, greater than 100 µM; in the assay on MDA-MB-231 breast, greater than 100 µM; in the assay on NCI/ADR-RES ovarian it was greater than 100 µM. Besides, the TGI in the assay on OVCAR-4 ovarian, with SK-MEL-5 melanoma, in the assay on T-47D breast and in the assay with TK-10 renal was greater than 100 µM each time.
For the compound `Cc1ccc(/C=N/Nc2nncc3ccccc23)s1`, the TGI in the assay with CAKI-1 renal was greater than 100 µM; with IGROV1 ovarian, greater than 100 µM; with KM12 colon, greater than 100 µM; in the assay on LOX IMVI melanoma it was greater than 100 µM; with MDA-MB-231 breast, greater than 82 µM; with NCI/ADR-RES ovarian, greater than 100 µM. In addition, the TGI is greater than 93.1 µM with OVCAR-4 ovarian, greater than 100 µM in the assay on SK-MEL-5 melanoma, greater than 100 µM in the assay with T-47D breast and greater than 100 µM in the assay with TK-10 renal.
As to `CC(=O)N1N=C(N)CC1=O`, the TGI in the assay with CAKI-1 renal, in the assay with IGROV1 ovarian, with KM12 colon, with LOX IMVI melanoma, with MDA-MB-231 breast and in the assay with NCI/ADR-RES ovarian was greater than 100 µM each time. The TGI with OVCAR-4 ovarian, in the assay on SK-MEL-5 melanoma, in the assay on T-47D breast and in the assay with TK-10 renal was greater than 100 µM in each case.
`O=C(/C=C/c1cccs1)c1cccc(C(=O)/C=C/c2cccs2)n1`: the TGI with CAKI-1 renal was greater than 100 µM; in the assay with IGROV1 ovarian, greater than 100 µM; in the assay on KM12 colon, greater than 66.3 µM; in the assay with LOX IMVI melanoma, 7.34 µM; with MDA-MB-231 breast, greater than 100 µM; with NCI/ADR-RES ovarian, greater than 100 µM. The TGI in the assay with OVCAR-4 ovarian, with SK-MEL-5 melanoma, in the assay with T-47D breast and with TK-10 renal was greater than 100 µM in each case.
As to `Clc1ccc2c(NCCNc3ccnc4cc(Cl)ccc34)ccnc2c1`, the TGI in the assay with CAKI-1 renal was 34.8 µM; in the assay with IGROV1 ovarian it was 36.6 µM; in the assay on KM12 colon, 32.5 µM; in the assay with LOX IMVI melanoma, 34.1 µM; in the assay with MDA-MB-231 breast it was 32.2 µM; with NCI/ADR-RES ovarian it was greater than 100 µM. Also, the TGI worked out at 35.5 µM with OVCAR-4 ovarian, 38.1 µM with SK-MEL-5 melanoma, 43.8 µM in the assay with T-47D breast and 34.6 µM with TK-10 renal.
